# Assay results: US12558366B2, “Bacterial DNA gyrase inhibitors and methods of use thereof” (THE FLORIDA INTERNATIONAL UNIVERSITY BOARD OF TRUSTEES, priority 2021, dated 2026)
# Entries after “also recorded” stand apart in the source; their conditions may differ. Like-named read-outs stand apart in the source and are kept apart here.
# Assays:
# E. coli DNA gyrase [1] = molecular target: T1, E. coli DNA gyrase (Escherichia coli, UniProt P0AES4+P0AES6); experiment: DNA gyrase mediated DNA cleavage assay; type: biochemical; conditions: plasmid pBR322
# T1 sequence (P0AES4 whole entry, one chain of several): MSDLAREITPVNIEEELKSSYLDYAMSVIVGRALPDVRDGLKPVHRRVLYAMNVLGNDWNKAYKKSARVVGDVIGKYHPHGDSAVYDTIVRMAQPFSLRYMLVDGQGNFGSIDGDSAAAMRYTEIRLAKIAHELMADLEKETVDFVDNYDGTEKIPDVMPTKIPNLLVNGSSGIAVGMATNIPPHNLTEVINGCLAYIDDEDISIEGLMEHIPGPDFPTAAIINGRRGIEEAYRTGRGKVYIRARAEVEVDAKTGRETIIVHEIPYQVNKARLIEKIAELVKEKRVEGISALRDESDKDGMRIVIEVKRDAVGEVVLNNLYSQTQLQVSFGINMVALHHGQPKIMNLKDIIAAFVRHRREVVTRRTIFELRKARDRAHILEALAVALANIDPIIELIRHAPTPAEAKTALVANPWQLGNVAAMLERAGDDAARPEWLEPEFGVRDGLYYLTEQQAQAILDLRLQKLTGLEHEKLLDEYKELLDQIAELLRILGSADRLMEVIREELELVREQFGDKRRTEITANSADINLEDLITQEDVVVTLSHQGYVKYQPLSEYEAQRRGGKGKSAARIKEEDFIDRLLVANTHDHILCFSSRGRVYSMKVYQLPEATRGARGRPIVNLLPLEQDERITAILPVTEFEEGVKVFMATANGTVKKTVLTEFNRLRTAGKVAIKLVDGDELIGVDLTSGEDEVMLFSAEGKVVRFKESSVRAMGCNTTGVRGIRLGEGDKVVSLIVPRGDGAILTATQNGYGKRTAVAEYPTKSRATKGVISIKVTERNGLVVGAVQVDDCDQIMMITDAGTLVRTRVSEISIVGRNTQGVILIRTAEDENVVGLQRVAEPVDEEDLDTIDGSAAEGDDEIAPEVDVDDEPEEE
# Description: 250 ng of supercoiled pBR322 plasmid were incubated with 50 nM of E. coli DNA gyrase in reactions containing 35 mM Tris-HCl, 24 mM KCl, 4 mM MgCl2, 2 mM DTT, 0.1 mg/mL BSA, 6.5% glycerol, and 1.75 mM ATP, in presence of 200 μM of compounds, at 37° C. for 15 min. Then, 0.2% (w/v) of SDS and 0.1 mg/mL proteinase K were added, and samples were incubated at 37° C. for 1 h. […] Samples were examined by electrophoresis in 1% w/v agarose gel containing 0.5 μg/mL ethidium bromide and photographed under UV light.
# E. coli (ATCC 25922) = experiment: Minimum inhibitory concentration, E. coli; type: cell-based; conditions: for MIC: Escherichia coli, ATCC25922, read-out: Minimum Inhibitory Concentration E. coli
# Description: (§1) Antibacterial minimum inhibitory concentrations (MICs) were obtained from three independent experiments using broth microdilution methods in 96-well plates according to Clinical and Laboratory Standards Institute guidelines. Cells were culture from singles colonies in MHIIB medium for 24 h at 37° C. in agitation (200 RPM). The cultures were then diluted using the same media to reach an OD600 of 0.1. Then, 50 μL of the diluted cultures were added to the plates holding 50 μL of serially diluted compounds in MHIIB. The plates were incubated at 37° C. for 20 h. The starting inoculum was fixated to 10^5 colony-forming units per ml.
# E. coli imp = experiment: microbe, parasite or virus in culture; type: cell-based; conditions: Escherichia coli, read-out: Minimum Inhibitory Concentration E. coli imp
# Description: as §1
# S. aureus (ATCC 14775) = experiment: Minimum inhibitory concentration, S. aureus; type: cell-based; conditions: for MIC: Staphylococcus aureus
# Description: as §1
# MRSA (ATCC BAA44) = experiment: microbe, parasite or virus in culture; type: cell-based, S. aureus; conditions: for MIC: Staphylococcus aureus
# Description: as §1
# B. subtilis (ATCC 6633) = experiment: Minimum inhibitory concentration, B. subtilis; type: cell-based; conditions: for MIC: Bacillus subtilis, ATCC6633, Tables 3a-3c
# Description: as §1
# E. coli DNA gyrase [2] = molecular target: T1, E. coli DNA gyrase; experiment: Agarose gel-based DNA gyrase inhibition assays; type: biochemical; conditions: 200 μM of compounds
# Description: 100 ng of DNA gyrase was used to supercoil the rx pAB1 in the presence of different concentrations of a gyrase inhibitor. […] Samples were analyzed by electrophoresis in 1% w/v agarose gels followed by ethidium bromide staining and photographed under UV light.
# E. coli DNA gyrase [3] = molecular target: T1, E. coli DNA gyrase; experiment: E. coli DNA gyrase inhibition (agarose gel-based and/or SDFQ-based, not specified per value); type: biochemical
# Mtb DNA gyrase = Mtb DNA gyrase (Mycobacterium tuberculosis, UniProt P9WG45+P9WG47); experiment: Mtb DNA gyrase inhibition; type: biochemical
# Mtb DNA gyrase, sequence (P9WG45 whole entry): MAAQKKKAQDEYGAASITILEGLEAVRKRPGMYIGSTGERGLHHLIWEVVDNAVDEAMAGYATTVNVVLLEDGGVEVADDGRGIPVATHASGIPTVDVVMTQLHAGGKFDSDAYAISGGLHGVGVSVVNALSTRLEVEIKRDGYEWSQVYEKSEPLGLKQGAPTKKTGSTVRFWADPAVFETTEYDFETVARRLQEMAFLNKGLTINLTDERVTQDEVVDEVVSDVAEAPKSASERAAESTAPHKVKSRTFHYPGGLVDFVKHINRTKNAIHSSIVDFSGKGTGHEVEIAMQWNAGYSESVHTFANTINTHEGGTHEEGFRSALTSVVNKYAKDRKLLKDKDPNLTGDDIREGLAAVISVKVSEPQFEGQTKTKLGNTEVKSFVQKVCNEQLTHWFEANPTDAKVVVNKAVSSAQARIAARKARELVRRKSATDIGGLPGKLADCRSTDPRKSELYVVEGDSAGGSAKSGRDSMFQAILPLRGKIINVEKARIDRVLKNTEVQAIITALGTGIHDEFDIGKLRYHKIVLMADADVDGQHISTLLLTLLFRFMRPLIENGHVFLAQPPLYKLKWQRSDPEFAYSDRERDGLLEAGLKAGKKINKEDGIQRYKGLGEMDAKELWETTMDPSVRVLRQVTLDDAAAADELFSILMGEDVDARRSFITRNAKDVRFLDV
# Mtb DNA gyrase, sequence (P9WG47 whole entry): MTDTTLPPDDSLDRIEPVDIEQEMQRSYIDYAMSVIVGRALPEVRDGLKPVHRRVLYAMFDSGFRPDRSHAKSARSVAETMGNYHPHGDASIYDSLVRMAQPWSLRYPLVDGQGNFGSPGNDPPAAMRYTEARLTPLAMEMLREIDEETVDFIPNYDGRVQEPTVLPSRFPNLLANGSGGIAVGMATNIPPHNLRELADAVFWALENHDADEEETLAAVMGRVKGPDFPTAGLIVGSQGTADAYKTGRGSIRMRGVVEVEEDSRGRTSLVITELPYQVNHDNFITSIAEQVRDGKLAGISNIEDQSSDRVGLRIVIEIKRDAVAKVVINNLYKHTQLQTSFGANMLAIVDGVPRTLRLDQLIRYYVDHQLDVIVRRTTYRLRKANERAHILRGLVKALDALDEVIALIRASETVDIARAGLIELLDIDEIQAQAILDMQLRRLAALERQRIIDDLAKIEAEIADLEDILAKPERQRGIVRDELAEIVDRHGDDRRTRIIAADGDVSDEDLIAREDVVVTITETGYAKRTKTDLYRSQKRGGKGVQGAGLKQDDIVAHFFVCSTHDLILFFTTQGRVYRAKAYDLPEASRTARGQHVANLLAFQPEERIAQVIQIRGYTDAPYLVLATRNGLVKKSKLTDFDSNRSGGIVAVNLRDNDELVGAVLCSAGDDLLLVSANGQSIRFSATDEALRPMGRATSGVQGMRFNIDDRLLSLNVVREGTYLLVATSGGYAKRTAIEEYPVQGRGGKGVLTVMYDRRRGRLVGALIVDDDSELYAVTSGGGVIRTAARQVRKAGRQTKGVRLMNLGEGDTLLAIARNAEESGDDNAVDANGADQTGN
# Mtb = Mtb inhibition (antibacterial activity); type: cell-based, Mycobacterium tuberculosis; parameters: % Mtb inhibition: concentration or dose not given beside the values; conditions: for % Mtb inhibition: Table 5
# J774 = experiment: Cytotoxicity in J774 cells; type: cell-based; conditions: for cytotoxicity: J774, 200 μM; for IC50: highest concentration 200 μM
# HepG2 = experiment: Cytotoxicity in HepG2 cells; type: cell-based; conditions: for cytotoxicity: HepG2, 200 μM; for IC50: highest concentration 200 μM
# E. coli DNA gyrase [4] = molecular target: T1, E. coli DNA gyrase; experiment: E. coli DNA gyrase ATPase assays; type: biochemical
# Description: E. coli DNA gyrase ATPase assays were performed in 60 μl, of 1×gyrase ATPase buffer (10 mM Tris.HCl (pH 7.5), 0.2 mM EDTA, 1 mM magnesium chloride, 1 mM DTT, and 2% (w/v) glycerol) containing 50 nM E. coli DNA gyrase, 200 ng rx pAB1, 0.8 mM Phosphoenol pyruvate, 1.2 units of Pyruvate kinase, 1.7 units of lactate dehydrogenase, and 0.4 mM of NADH at 37° C. After the reaction mixtures are incubated on ice for 5 minutes, 2 mM of ATP is added to initiate the reaction. Absorbance at OD340 nm is monitored for up to 30 minutes at 37° C. in a spectrophotometer.
# [5] = molecular target: human DNA topoisomerase 2α (Homo sapiens, UniProt P11388); experiment: Human DNA topoisomerase 2α-mediated DNA cleavage assays; type: biochemical; conditions: plasmid pBR322
# human DNA topoisomerase 2α, sequence (P11388 whole entry): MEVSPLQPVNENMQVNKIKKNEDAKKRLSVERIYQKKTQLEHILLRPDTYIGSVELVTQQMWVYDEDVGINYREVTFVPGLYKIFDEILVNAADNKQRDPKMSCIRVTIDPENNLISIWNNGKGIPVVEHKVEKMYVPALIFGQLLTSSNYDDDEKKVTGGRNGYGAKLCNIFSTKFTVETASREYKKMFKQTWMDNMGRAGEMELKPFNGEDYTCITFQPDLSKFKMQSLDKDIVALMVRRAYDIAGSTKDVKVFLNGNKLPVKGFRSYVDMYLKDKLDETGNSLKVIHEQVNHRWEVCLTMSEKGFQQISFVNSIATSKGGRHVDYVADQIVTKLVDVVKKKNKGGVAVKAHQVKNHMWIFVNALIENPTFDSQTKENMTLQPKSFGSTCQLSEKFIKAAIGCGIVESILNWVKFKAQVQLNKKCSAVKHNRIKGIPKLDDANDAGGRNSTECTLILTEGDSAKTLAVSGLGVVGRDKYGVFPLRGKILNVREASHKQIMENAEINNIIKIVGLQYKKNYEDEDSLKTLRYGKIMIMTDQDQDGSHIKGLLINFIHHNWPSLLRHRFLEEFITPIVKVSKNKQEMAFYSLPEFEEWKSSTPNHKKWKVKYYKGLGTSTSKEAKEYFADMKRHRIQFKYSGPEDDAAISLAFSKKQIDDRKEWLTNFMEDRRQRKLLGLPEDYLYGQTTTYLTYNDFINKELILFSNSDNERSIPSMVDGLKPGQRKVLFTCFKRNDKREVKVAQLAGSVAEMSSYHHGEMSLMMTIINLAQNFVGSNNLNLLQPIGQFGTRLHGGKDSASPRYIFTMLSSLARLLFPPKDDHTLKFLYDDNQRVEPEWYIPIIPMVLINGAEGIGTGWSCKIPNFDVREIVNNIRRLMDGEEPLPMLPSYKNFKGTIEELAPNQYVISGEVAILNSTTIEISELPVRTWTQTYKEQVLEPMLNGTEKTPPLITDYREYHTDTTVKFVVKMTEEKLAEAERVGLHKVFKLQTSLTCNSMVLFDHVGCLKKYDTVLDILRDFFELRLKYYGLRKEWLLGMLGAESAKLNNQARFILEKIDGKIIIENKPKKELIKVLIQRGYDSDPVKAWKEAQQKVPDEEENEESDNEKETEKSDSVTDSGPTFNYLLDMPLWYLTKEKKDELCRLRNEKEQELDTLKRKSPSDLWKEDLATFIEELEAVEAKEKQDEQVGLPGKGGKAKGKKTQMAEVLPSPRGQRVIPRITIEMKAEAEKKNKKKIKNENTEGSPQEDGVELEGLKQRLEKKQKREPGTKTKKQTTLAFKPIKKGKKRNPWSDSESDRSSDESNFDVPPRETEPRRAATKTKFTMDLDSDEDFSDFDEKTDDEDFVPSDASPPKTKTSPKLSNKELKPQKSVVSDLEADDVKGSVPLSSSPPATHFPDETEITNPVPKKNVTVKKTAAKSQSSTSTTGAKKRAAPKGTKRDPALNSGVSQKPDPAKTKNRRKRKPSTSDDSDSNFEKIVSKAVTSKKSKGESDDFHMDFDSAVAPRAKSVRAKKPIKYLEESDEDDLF
# E. coli DNA gyrase [6] = molecular target: T1, E. coli DNA gyrase; experiment: SDFQ HTS assay of E. coli DNA gyrase (1536-well); type: biochemical; conditions: read-out: inhibition activities against E. coli DNA gyrase
# Description: SDFQ HITS primary assay using pAB1_FL905 was performed in 2 μL of (1×DNA gyrase buffer: 20 mM Tris-Acetate pH 7.9, 50 mM KAc, 10 mM MgCl2, 2 mM DTT, 1 mM ATP, 0.1 mg/ml. BSA). […] 3) Spun plate at 800 rpm for 30 seconds. […] SDFQ HTS secondary assay using pAB1_FL924 was performed in 2 μL of (1×DNA gyrase buffer: 20 mM Tris-Acetate pHI 7.9, 50 mM KAc, 10 mM MgCl2, 2 mM DTT, 1 mM ATP, 0.1 mg/mL BSA). […] 3) Spun plate at 800 rpm for 30 seconds.
# [7] = ATCC14775, Tables 3a-3c, read-out: Minimum Inhibitory Concentration S. aureus
# [8] = read-out: Minimum Inhibitory Concentration S. aureus MRSA
# [9] = Table 2 values, read-out: IC50 ( ≤15 μM) IC50
structure (smiles),measurement,setting,value
"CC(OC(=O)c1cc(O)c2ccccc2c1O)C(=O)Nc1ccc(C(N)=O)cc1 (centres unmarked) [Compound 40, 1-[(4-carbamoylphenyl)carbamoyl]ethyl 1,4-dihydroxynaphthalene-2-carboxylate]",DNA gyrase-mediated double stranded DNA breaks / DNA nicking,E. coli DNA gyrase [1],causes DNA gyrase-mediated double stranded DNA breaks and DNA nicking; also recorded: causes gyrase-mediated DNA double-stranded breaks and single-stranded nicks; also recorded: bacterial DNA gyrase poison
same,MIC,E. coli (ATCC 25922),> 200 µM
same,MIC,E. coli imp,> 200 µM
same,MIC,S. aureus (ATCC 14775); [7],> 200 µM
same,MIC,MRSA (ATCC BAA44); [8],> 200 µM
same,anti Bacillus subtilis activities at,B. subtilis (ATCC 6633),39 µg/mL
Cc1c(CCC(=O)O)c(=O)oc2cc3occ(-c4ccc(Br)cc4)c3cc12 [Compound 46],inhibition of E. coli DNA gyrase activities,E. coli DNA gyrase [2],completely inhibited
same,IC50,E. coli DNA gyrase [3],11.4 µM
same,inhibition of E. coli DNA gyrase activities,E. coli DNA gyrase [3],potent bacterial DNA gyrase inhibitors
same,IC50,E. coli DNA gyrase [3]; [9],11.2 µM
same,IC50,Mtb DNA gyrase; Table 5,75 µM
same,MIC,E. coli (ATCC 25922),> 200 µM
same,MIC,E. coli imp,6.25 µM
same,MIC,"S. aureus (ATCC 14775); ATCC14775, Table 5, read-out: MIC (μM) SA",> 200 µM
same,MIC,S. aureus (ATCC 14775); [7],> 200 µM
same,MIC,MRSA (ATCC BAA44); read-out: MIC (μM) MRSA,> 200 µM
same,MIC,MRSA (ATCC BAA44); [8],> 200 µM
same,MIC,B. subtilis (ATCC 6633),6.25 µM
same,activity against Mtb,Mtb,most active for Mtb
same,inhibition at 20 µM,"Mtb; Mycobacterium tuberculosis, read-out: % inhibition (20 μM), 20 μM, Table 6",82.3%
same,cytotoxicity,J774,no cytotoxicity evident
same,IC50,"J774; Mus musculus, J774",> 200 µM
same,cytotoxicity,HepG2,no cytotoxicity evident
same,IC50,"HepG2; Homo sapiens, HepG2",> 200 µM
Cc1c(CCC(=O)O)c(=O)oc2c(C)c3occ(-c4ccc(Br)cc4)c3cc12 [Compound 48],IC50,E. coli DNA gyrase [3]; [9],4.28 µM
same,mode of inhibition (ATP competitive),E. coli DNA gyrase [4],ATP competitive inhibitor
same,MIC,E. coli (ATCC 25922),> 200 µM
same,MIC,E. coli imp,> 200 µM
same,MIC,B. subtilis (ATCC 6633),> 200 µM
same,% Mtb inhibition,Mtb,38.6%
Cc1c(C)c2cc3c(-c4ccc(Br)cc4)coc3c(C)c2oc1=O [Compound 118],inhibition of E. coli DNA gyrase activities,E. coli DNA gyrase [3],All psoralen derivatives inhibited E. coli and Mtb DNA gyrase activities except compounds 118 and 122
same,inhibition of Mtb DNA gyrase activities,Mtb DNA gyrase,All psoralen derivatives inhibited E. coli and Mtb DNA gyrase activities except compounds 118 and 122
same,MIC,"S. aureus (ATCC 14775); ATCC14775, read-out: Minimum Inhibitory Concentration S. aureus",200 µM
same,MIC,MRSA (ATCC BAA44); [8],200 µM
same,% Mtb inhibition,Mtb,21.8%
Cc1c(CCC(=O)O)c(=O)oc2c(C)c3occ(-c4ccc(-c5ccccc5)cc4)c3cc12 [Compound 119],MIC,E. coli (ATCC 25922),> 200 µM
same,MIC,E. coli imp,> 200 µM
same,MIC,B. subtilis (ATCC 6633),> 200 µM
same,activity against Mtb,Mtb,most active for Mtb
same,cytotoxicity,J774,no cytotoxicity evident
same,cytotoxicity,HepG2,no cytotoxicity evident
Cc1coc2cc3oc(=O)c(CCC(=O)O)c(C)c3cc12 [Compound 122],inhibition of E. coli DNA gyrase activities,E. coli DNA gyrase [3],All psoralen derivatives inhibited E. coli and Mtb DNA gyrase activities except compounds 118 and 122
same,inhibition of Mtb DNA gyrase activities,Mtb DNA gyrase,All psoralen derivatives inhibited E. coli and Mtb DNA gyrase activities except compounds 118 and 122
same,MIC,S. aureus (ATCC 14775); [7],200 µM
same,MIC,MRSA (ATCC BAA44); [8],200 µM
same,% Mtb inhibition,Mtb,15.7%
Cc1c(CCC(=O)O)c(=O)oc2c(C)c3occ(-c4ccc5ccccc5c4)c3cc12 [Compound 124],MIC,E. coli (ATCC 25922),> 200 µM
same,MIC,E. coli imp,> 200 µM
same,activity against Mtb,Mtb,most active for Mtb
same,cytotoxicity,J774,no cytotoxicity evident
same,cytotoxicity,HepG2,no cytotoxicity evident
"N=C(N)Nc1nc(-c2ccccc2)c2cc(Cl)ccc2n1 [Compound 154, N-(6-chloro-4-phenylquinazolin-2-yl)guanidine]",IC50,E. coli DNA gyrase [3]; [9],3.12 µM
same,DNA gyrase-mediated double stranded DNA breaks / DNA nicking,E. coli DNA gyrase [1],causes the gyrase-mediated DNA double-stranded breaks and single-stranded nicks; also recorded: bacterial DNA gyrase poison
same,human topoisomerase 2α-mediated DNA nicks and double-stranded breaks,[5],causes the human topoisomerase 2α-mediated DNA nicks and double-stranded breaks
same,antibacterial activities against E. coli,E. coli (ATCC 25922); wildtype strain ATCC 25922,significant antibacterial activities
same,MIC,E. coli imp,50 to 100 µM
same,growth inhibition of S. aureus,S. aureus (ATCC 14775),significant antibacterial activities
same,growth inhibition of MRSA,MRSA (ATCC BAA44),significant antibacterial activities
"O=C(O)CCNc1ccc(NCCC(=O)O)c2c1C(=O)c1ccccc1C2=O [Compound 173, 3-({4-[(2-carboxyethyl)amino]-9,10-dioxo-9,10-dihydroanthracen-1-yl}amino)propanoic acid]",DNA gyrase-mediated double stranded DNA breaks / DNA nicking,E. coli DNA gyrase [1],cause DNA nicking
"O=C1C=C(NCCc2cc(Br)c(O)c(Br)c2)C(=O)c2ncccc21 [Compound 232, 7-((2-(3,5-Dibromo-4-hydroxyphenyl)ethyl)amino)-5,8-quinolinedione]",DNA gyrase-mediated double stranded DNA breaks / DNA nicking,E. coli DNA gyrase [1],cause DNA nicking
"Cc1cc(O)c2c(c1)C(=O)c1cc(O)cc(O)c1C2=O [Compound 242, Emodin]",inhibition at 5 µM,E. coli DNA gyrase [6],> 40%
CNC(=O)[C@H]1O[C@@H](n2cnc3c(NCc4cccc(I)c4)ncnc32)[C@H](O)[C@@H]1O [IB-MECA],inhibition of the ATPase activities of E. coli DNA gyrase,E. coli DNA gyrase [4],inhibition of the ATPase activities
same,mode of inhibition (ATP competitive),E. coli DNA gyrase [4],ATP competitive inhibitors
same,inhibition of Mtb DNA gyrase activities,Mtb DNA gyrase,did not inhibit
O=S(=O)(Cl)c1ccc(Oc2ccc(S(=O)(=O)Cl)cc2)cc1 [NSC212],% inhibition (20 μM),"Mtb; 20 μM, Table 6",84.6%
same,IC50,J774,> 200 µM
same,IC50,HepG2,> 200 µM
Sc1cccc2c(S)cccc12 [NSC229],% inhibition (20 μM),"Mtb; 20 μM, Table 6",99.3%
same,IC50,J774,> 200 µM
same,IC50,HepG2,> 200 µM
"CNC(=O)[C@H]1O[C@@H](n2cnc3c(NCc4cccc(I)c4)nc(Cl)nc32)[C@H](O)[C@@H]1O [chloro-IB-MECA, reference compound]",inhibition of the ATPase activities of E. coli DNA gyrase,E. coli DNA gyrase [4],inhibition of the ATPase activities
same,mode of inhibition (ATP competitive),E. coli DNA gyrase [4],ATP competitive inhibitors
same,inhibition of Mtb DNA gyrase activities,Mtb DNA gyrase,did not inhibit
same,DNA gyrase-mediated double stranded DNA breaks / DNA nicking,E. coli DNA gyrase [1],did not DNA double stranded DNA 10 breaks
CCn1cc(C(=O)O)c(=O)c2cc(F)c(N3CCNC(C)C3)c(F)c21 (centres unmarked) [lomefloxacin],inhibition at 5 µM,E. coli DNA gyrase [6],> 40%
Cc1ccc(C(=O)Nc2ccc(S(=O)(=O)O)c3cc(S(=O)(=O)O)cc(S(=O)(=O)O)c23)cc1NC(=O)c1cccc(NC(=O)Nc2cccc(C(=O)Nc3cc(C(=O)Nc4ccc(S(=O)(=O)O)c5cc(S(=O)(=O)O)cc(S(=O)(=O)O)c45)ccc3C)c2)c1 [suramin],inhibition at 5 µM,E. coli DNA gyrase [6],> 40%
N[C@@H]1[C@H]2CN(c3nc4c(cc3F)c(=O)c(C(=O)O)cn4-c3ccc(F)cc3F)C[C@@H]12 [trovafloxacin],inhibition at 5 µM,E. coli DNA gyrase [6],> 40%
